Experiments:
[1] = system: mouse bone marrow-derived pluripotent stem cells (BMSC); assay: Differentiation of BMSC into myotubes, phase-contrast microscope; assay type: cell-based; conditions: 5-aza-C 3 μM in all dishes
Description: The mouse bone marrow-derived pluripotent stem cells (BMSC) having the potential to differentiate into cardiomyocytes were plated into 60-mm culture dishes and 60 mm fibronectin-coated dishes (Becton Dickinson) at a density of 2×10^4 cells/ml and cultured at 33° C. in a 5% CO2-incubator.
On the next day, 5-aza-C was added to each culture medium in a final concentration of 3 μM, followed by culturing with the following 3 different treatments, with addition of PDGF (culture dish A), both PDGF and retinoic acid (culture dish B) or without addition of any compound (culture dish C) (final concentration: PDGF, 10 ng/ml; retinoic acid, 10^−9 M).
On the next day, the medium was replaced with a fresh medium to remove 5-aza-C therefrom. Then, PDGF was added to the culture dish A until the final concentration of PDGF came to be 10 ng/ml, while PDGF and retinoic acid were added to the culture dish B until the final concentrations of PDGF and retinoic acid came to be 10 ng/ml and 10^−9 M, respectively. Two and four days thereafter, the medium was replaced and the PDGF or retinoic acid was further added.
As a result, about 30% of the cells in the culture dish containing 5-aza-C alone differentiated into myotubes, while about 40% of the cells in the culture dish containing PDGF and about 50% of the cells in the culture dish containing PDGF together with retinoic acid differentiated into myotubes. In the three groups of the fibronectin-coated dishes, the ratio of the cells differentiated into myotubes was about 10% higher than in the three groups of the culture dishes.
(§1) RNAs were collected from the myotubes thus obtained. And genes expressed in the myotubes were analyzed with quantitative PCR analysis using the synthetic oligonucleotides represented by SEQ ID NOS:71 to 78. As a result, PDGF or retinoic acid promoted the expression of MyoD and fTnI genes relating to a skeletal muscle but not cTnI or ANP specifically relating to a myocardium. Next, mouse bone marrow-derived pluripotent stem cells (BMSC) having the potential to differentiate into cardiomyocytes were inoculated in a 60-mm culture dish at a density of 2×10^4 cells/ml and cultured using an incubator at 33° C. under 5% of CO2.
On the next day, 5-aza-C was added to the liquid culture medium to give a final concentration of 3 μM. Furthermore, five treatments differing from each other were performed by adding FGF-8 to give a final concentration of 10 ng/ml (culture dish D); adding ET-1 to give a final concentration of 10 ng/ml (culture dish E); adding a midkine to give a final concentration of 10 ng/ml (Culture dish F); adding BMP4 to give a final concentration of 10 ng/ml (culture dish G); and adding no compound (culture dish H), followed by culturing.
On the next day, the medium was replaced by a fresh medium to eliminate 5-aza-C therefrom. Then, FGF-8 was added to the culture dish D to give a final concentration of 10 ng/ml; ET-1 was added to the culture dish E to give a final concentration of 10 ng/ml; the midkine was added to the culture dish F to give a final concentration of 10 ng/ml; and BMP4 was added to the culture dish G to give a final concentration of 10 ng/ml, followed by culturing. Two and four days thereafter, the medium was replaced and the FGF-8, ET-1, midkine or BMP4 was further added.
As a result, about 30% of the cells in the culture dish containing 5-aza-C alone differentiated into myotubes, while about 50% of the cells in the culture dishes containing FGF-8, ET-1, midkine or BMP4 differentiated into myotubes respectively.

KUM2 cells = assay: Induction of spontaneously beating cardiomyocytes in KUM2 cells by 5-aza-C; assay type: cell-based, mouse; conditions: 5-aza-C 3 μM for 24 hours
Description: After culturing for about 4 months under the above conditions, immortalized cells were selected and diluted to establish 192 cell lines respectively derived from single cells (hereinafter referred to as bone marrow-derived first passage immortalized cell lines). To each of these clone-derived cell lines was added 5-aza-C at a final concentration of 3 μM, and the cells were cultured for 24 hours. After culturing for further 2 weeks in IMDM, clones that produced spontaneously beating cells were selected. […] One of three cell lines is KUM2. Hereinafter, unless otherwise indicated, the bone marrow cell KUM2 and mouse bone marrow-derived pluripotent stem cells (BMSC) described below were cultured in IMDM supplemented with 20% FCS, […] penicillin, 250 ng/ml streptomycin and […] amphotericin at 33° C. using a 5% CO2-incubator. When the KUM2 cells were exposed to 5-aza-C having a final concentration of 3 μM for 24 hours, nonspecific differentiation into spontaneously beating cardiomyocytes was induced. However, the frequency is very low (one or less per 10^7 cells).

[2] = system: Nkx2.5/Csx and GATA4 co-forced expressing bone marrow cells (BMSC-Nkx2.5-GATA4); assay: Differentiation of BMSC-Nkx2.5-GATA4 with cytokines, phase-contrast microscope; assay type: cell-based, mouse; conditions: BMSC-Nkx2.5-GATA4, 5-aza-C 3 μM in all dishes; cytokine 10 ng/ml; four weeks
Description: The Nkx2.5/Csx and GATA4 co-forced expressing bone marrow cells (BMSC-Nkx2.5-GATA4) having the potential to differentiate into cardiomyocytes were plated into a 60-mm culture dish at a density of 2×10^4 cells/ml and cultured at 33° C. in a 5% CO2-incubator.
On the next day, 5-aza-C was added to the culture medium to give a final concentration of 3 μM. Furthermore, 5 treatments differing from each other were carried out by adding FGF-8 to give a final concentration of 10 ng/ml (culture dish I); adding ET-1 to give a final concentration of 10 ng/ml (culture dish J); adding midkine to give a final concentration of 10 ng/ml (culture dish K); adding BMP4 to give a final concentration of 10 ng/ml (culture dish L); and adding nothing (culture dish M), followed by culturing.
On the next day, the medium was replaced with a fresh medium to eliminate 5-aza-C. Then, FGF-8 was added to the culture dish I to give a final concentration of 10 ng/ml; ET-1 was added to the culture dish J to give a final concentration of 10 ng/ml; midkine was added to the culture dish K to give a final concentration of 10 ng/ml; and BMP4 was added to the culture dish L to give a final concentration of 10 ng/ml, followed by culturing. Two and four days thereafter, furthermore, the medium was replaced, and the FGF-8, ET-1, midkine or BMP4 was added.
As a result, about 30% of the cells in the culture dish containing 5-aza-C alone were converted into myotubes, while about 50% of the cells in the culture dishes containing FGF-8, ET-1, midkine or BMP4 differentiated into myotubes respectively. On the other hand, the addition of FGF-8, ET-1, midkine or BMP4 caused no increase in beating cardiomyocytes.

[3] = system: mouse bone marrow-derived pluripotent stem cells (BMSC); assay: Induction of differentiation of BMSC into cardiomyocytes using DMSO; assay type: cell-based; conditions: then 6 weeks
Description: According to the method described in Example 1, mouse bone marrow-derived pluripotent stem cells (BMSC) having the potential to differentiate into cardiomyocytes were obtained and cultured for 24 hours in the presence of 10 μM DMSO instead of 3 μM 5-aza-C. The medium was replaced with IMDM, followed by culturing for 6 weeks.

Bone marrow cells (BMSC) = assay: Induction of adipocytes from BMSC by PPAR-γ receptor agonists; assay type: cell-based, mouse
Description: Bone marrow cells (BMSC) having the potential to differentiate into cardiomyocytes can be induced to differentiate not only into cardiomyocytes but also into adipocytes. To control the differentiation into adipocytes, the conditions for the induction of the differentiation were examined. First, the expression of PPAR-y receptors was analyzed by the quantitative PCR method. […] Subsequently, PPAR-γ receptor agonists, pioglitazone and troglitazone, were added at various concentrations to bone marrow cells (BMSC) having the potential to differentiate into cardiomyocytes.

[4] = system: mouse bone marrow-derived pluripotent stem cells (BMSC); assay: Quantitative PCR of genes expressed in myotubes from BMSC; assay type: cell-based; conditions: with 5-aza-C 3 μM; for expression of cTnI or ANP specifically relating to a myocardium: PDGF 10 ng/ml, retinoic acid 10^−9 M
Description: as §1
RNAs were collected from the myotubes thus obtained. And genes expressed in the myotubes were analyzed with quantitative PCR using the synthetic oligonucleotides represented by SEQ ID NOS:71 to 78. As a result, the FGF-8, ET-1, midkine and BMP4 each individually promoted the expression of cTnI and ANP gene which are myocardium-specific genes.

[5] = culture dishes, PDGF 10 ng/ml, retinoic acid 10^−9 M, four weeks

`Nc1ncn([C@@H]2O[C@H](CO)[C@@H](O)[C@H]2O)c(=O)n1` [5-aza-C, 5-azacytidine, reference compound] was tested, and the “cells differentiated into myotubes” value ([1]; cytokine 10 ng/ml, four weeks after addition of 5-aza-C) was “about 30%”, the “cells differentiated into myotubes” value [1, 5] was “about 30%” and the “frequency of differentiation into spontaneously beating cardiomyocytes” value (KUM2 cells) was “one or less”. For the same molecule, the “cells differentiated into myotubes” value [2] was “about 30%”.
For `C[S+](C)[O-]` [DMSO, dimethyl sulfoxide], the “differentiation into beating cardiomyocytes” value ([3]; 10 μM DMSO for 24 hours instead of 5-aza-C) was “induced to differentiate into beating cardiomyocytes” and the “expression of Nkx2.5/Csx and GATA4 genes in produced cells” value ([3]; 10 μM DMSO for 24 hours) was “expressed”.
For `CCc1ccc(CCOc2ccc(CC3SC(=O)NC3=O)cc2)nc1` (stereo not drawn) [pioglitazone], the “BMSCs differentiated into adipocytes” value (Bone marrow cells (BMSC); 0.4 μM) was “about 50%” and the “BMSCs differentiated into adipocytes” value (Bone marrow cells (BMSC); 2 μM) was ~100%.
In the case of `CC1=C(/C=C/C(C)=C/C=C/C(C)=C/C(=O)O)C(C)(C)CCC1` [retinoic acid, all trans retinoic acid, reference compound], the “expression of MyoD and fTnI genes relating to a skeletal muscle” value [4] is reported as “promoted” and the “expression of cTnI or ANP specifically relating to a myocardium” value [4] is reported as “not”.
For `Cc1c(C)c2c(c(C)c1O)CCC(C)(COc1ccc(CC3SC(=O)NC3=O)cc1)O2` (stereo not drawn) [troglitazone], the “BMSCs differentiated into adipocytes” value (Bone marrow cells (BMSC); 0.4 μM) was “about 50%” and the “BMSCs differentiated into adipocytes” value (Bone marrow cells (BMSC); 2 μM) was ~100%.
In the case of PDGF, the “cells differentiated into myotubes” value [1, 5] is reported as “about 40%”, the “expression of MyoD and fTnI genes relating to a skeletal muscle” value [4] is reported as “promoted” and the “expression of cTnI or ANP specifically relating to a myocardium” value [4] is reported as “not”.

Source: patent publication US20020142457A1, “Cell having the potentiality of differentiation into cardiomyocytes” (priority 1999, published 2002)
